Experiments:
[1] = tested on: CCR2 expressing cells (CD11b+Ly6c+Hi) in peripheral blood; experiment: In vivo depletion assay, flow cytometry of peripheral blood (Example 201); design: species or system human CCR2 knock-in mice (C57 background); conditions: hCCR2 knock-in mice, IV 0.1 mpk compound + 10 mpk anti-cotinine antibody (SEQ ID NO: 13/14), peripheral blood at 48 hr
In short: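 Flow cytometry of blood collected at study termination quantified percent depletion of CD11b+Ly6c+Hi cells and CCR2 expression, using surface markers CD45, CD3, CD11b, Ly6C, human CCR2 after Fc block, with 7AAD viability stain. Compound given in saline:DMSO:PBS formulation, optionally combined with anti-cotinine antibody, incubated 30 min before administration.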

[2] = molecular target: anti-cotinine antibody (SEQ ID NO: 11/12, rabbit variable region with human IgG1 Fc DE mutation); experiment: SPR binding of anti-cotinine antibody to ARM compounds, Biacore T200, 37° C. (Example 202); conditions: SPR Biacore T200, 37° C., pH 7.4, antibody SEQ ID NO: 11/12 captured on protein A; Kd in molar
In short: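 Run at 37 °C in 10 mM HEPES pH 7.4, 150 mM NaCl, 0.005% P20, 1% DMSO, with compounds titrated from 200 nM (five 3-fold steps) over protein A–captured antibody. A 1:1 kinetic model on double-referenced data gave rate constants, Kd as koff/kon and residence time 1/koff; results as pKd, run-averaged.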

[3] = molecular target: human alpha1 nicotinic acetylcholine (nACh) receptor (Homo sapiens, UniProt P02708); experiment: Nicotinic acetylcholine receptor antagonism assay, IONFlux automated patch clamp (Example 203); type: cell-based; conditions: for IC50: antagonism of ACh-stimulated human alpha1 nAChR current, patch clamp; for Emax at 10 µM: maximum percentage antagonism at maximum concentration tested 10 μM; for Emax at 10 µM / Emax at 100 µM: read-out: Maximum Response; for Emax at 100 µM: maximum percentage antagonism at maximum concentration tested 100 μM
Sequence of human alpha1 nicotinic acetylcholine (nACh) receptor (P02708 21-457): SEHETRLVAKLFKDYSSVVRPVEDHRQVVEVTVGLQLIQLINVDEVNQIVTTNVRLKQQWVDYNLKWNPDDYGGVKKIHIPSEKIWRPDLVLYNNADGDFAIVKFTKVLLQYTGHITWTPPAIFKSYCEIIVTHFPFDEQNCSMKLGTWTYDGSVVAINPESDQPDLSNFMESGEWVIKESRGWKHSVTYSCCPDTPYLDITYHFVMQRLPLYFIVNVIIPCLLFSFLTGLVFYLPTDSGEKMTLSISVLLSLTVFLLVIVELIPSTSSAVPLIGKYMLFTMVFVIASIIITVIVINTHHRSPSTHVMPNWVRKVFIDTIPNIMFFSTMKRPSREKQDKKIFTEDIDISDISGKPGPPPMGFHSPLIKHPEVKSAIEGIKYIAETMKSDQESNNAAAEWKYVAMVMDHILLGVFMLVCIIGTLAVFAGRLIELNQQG
Sequence of human alpha1 nicotinic acetylcholine (nACh) receptor (P11230 24-501 partner): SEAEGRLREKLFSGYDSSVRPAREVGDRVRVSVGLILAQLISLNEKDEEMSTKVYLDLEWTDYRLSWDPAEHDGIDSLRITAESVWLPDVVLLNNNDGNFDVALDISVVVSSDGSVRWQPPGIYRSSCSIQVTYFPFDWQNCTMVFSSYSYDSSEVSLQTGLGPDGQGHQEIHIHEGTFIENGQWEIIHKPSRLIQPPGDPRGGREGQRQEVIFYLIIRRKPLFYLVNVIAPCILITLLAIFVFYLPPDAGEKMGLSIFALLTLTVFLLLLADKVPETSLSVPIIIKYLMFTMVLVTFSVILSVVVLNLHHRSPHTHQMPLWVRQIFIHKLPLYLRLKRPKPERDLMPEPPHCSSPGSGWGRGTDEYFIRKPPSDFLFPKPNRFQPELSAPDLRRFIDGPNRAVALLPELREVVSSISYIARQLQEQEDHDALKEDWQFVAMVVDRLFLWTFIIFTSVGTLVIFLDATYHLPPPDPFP
Sequence of human alpha1 nicotinic acetylcholine (nACh) receptor (Q07001 22-517 partner): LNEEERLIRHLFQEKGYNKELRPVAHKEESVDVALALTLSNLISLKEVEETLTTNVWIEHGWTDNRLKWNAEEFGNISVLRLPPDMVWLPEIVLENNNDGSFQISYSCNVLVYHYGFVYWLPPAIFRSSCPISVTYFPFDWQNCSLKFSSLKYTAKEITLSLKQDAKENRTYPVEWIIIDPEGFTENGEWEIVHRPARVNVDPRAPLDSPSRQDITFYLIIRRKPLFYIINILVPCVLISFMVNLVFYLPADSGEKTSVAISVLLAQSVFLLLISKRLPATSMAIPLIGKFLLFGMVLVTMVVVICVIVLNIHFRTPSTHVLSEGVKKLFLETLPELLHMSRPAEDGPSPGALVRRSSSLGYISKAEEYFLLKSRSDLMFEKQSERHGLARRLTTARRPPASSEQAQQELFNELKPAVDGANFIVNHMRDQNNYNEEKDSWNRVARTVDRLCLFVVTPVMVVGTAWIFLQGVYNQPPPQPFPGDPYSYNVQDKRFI
In short: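 Cells expressing human α1 nAChR were incubated with a compound dose response (top 10 μM or 100 μM), then stimulated with ACh (10 mM), and peak current was read by automated patch clamp. % inhibition was taken against ACh-alone control, corrected for vehicle and run-down, and fit non-linearly for IC50; runs were averaged.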

SMILES | % Depletion of CCR2 expressing cells [1] | pKd of Antibody for ARM Compound of Formula (I) [2] | IC50 [3] | Emax at 10 µM [3] | Emax at 100 µM [3]
CC(C)N(C)[C@@H]1CC[C@H](N2CC[C@H](Nc3ncnc4ccc(C(F)(F)F)cc34)C2=O)[C@H](NC(=O)CCOCCNC(=O)[C@H]2CC[C@@H](NC(=O)COCCNC(=O)[C@H]3CC(=O)N(C)[C@@H]3c3cccnc3)CC2)C1 [Example 107, (2S,3S)-N-(2-(2-(((1S,4R)-4-((2-(3-(((1R,2S,5R)-5-(Isopropyl(methyl)amino)-2-((S)-2-oxo-3-((6-(trifluoromethyl)quinazolin-4-yl)amino)pyrrolidin-1-yl)cyclohexyl)amino)-3-oxopropoxy)ethyl)carbamoyl)cyclohexyl)amino)-2-oxoethoxy)ethyl)-1-methyl-5-oxo-2-(pyridin-3-yl)pyrrolidine-3-carboxamide] | 96% | 9.161 | ≥ 10 µM | 12.2% | –
CC(C)N(C)[C@@H]1CC[C@H](N2CC[C@H](Nc3ncnc4ccc(C(F)(F)F)cc34)C2=O)[C@H](NC(=O)[C@H]2CC[C@@H](NC(=O)CCCO[C@H]3CC[C@H](OCCNC(=O)[C@H]4CC(=O)N(C)[C@@H]4c4cccnc4)CC3)CC2)C1 [Example 5, (2S,3S)-N-(2-(((1R,4S)-4-(4-(((1S,4S)-4-(((1R,2S,5R)-5-(Isopropyl(methyl)amino)-2-((S)-2-oxo-3-((6-(trifluoromethyl)quinazolin-4-yl)amino)pyrrolidin-1-yl)cyclohexyl)carbamoyl)cyclohexyl)amino)-4-oxobutoxy)cyclohexyl)oxy)ethyl)-1-methyl-5-oxo-2-(pyridin-3-yl)pyrrolidine-3-carboxamide] | 91.05% | 9.19 | ≥ 100 µM | – | 40.5%
CC(C)N(C)[C@@H]1CC[C@H](N2CC[C@H](Nc3ncnc4ccc(C(F)(F)F)cc34)C2=O)[C@H](NC(=O)[C@H]2CC[C@@H](NC(=O)CCOCCOCCOCCNC(=O)[C@H]3CC(=O)N(C)[C@@H]3c3cccnc3)CC2)C1 [Example 28, (2S,3S)-N-(2-(2-(2-(3-(((1S,4s)-4-(((1R,2S,5R)-5-(Isopropyl(methyl)amino)-2-((S)-2-oxo-3-((6-(trifluoromethyl)quinazolin-4-yl)amino)pyrrolidin-1-yl)cyclohexyl)carbamoyl)cyclohexyl)amino)-3-oxopropoxy)ethoxy)ethoxy)ethyl)-1-methyl-5-oxo-2-(pyridin-3-yl)pyrrolidine-3-carboxamide] | 87.1% | 9.273 | 40.9 µM | – | 69.9%
CC(C)N(C)[C@@H]1CC[C@H](N2CC[C@H](Nc3ncnc4ccc(C(F)(F)F)cc34)C2=O)[C@H](NC(=O)COCCNC(=O)COCCNC(=O)COCCNC(=O)[C@H]2CC(=O)N(C)[C@@H]2c2cccnc2)C1 [Example 111, (2S,3S)-N-(17-(((1R,2S,5R)-5-(Isopropyl(methyl)amino)-2-((S)-2-oxo-3-((6-(trifluoromethyl)quinazolin-4-yl)amino)pyrrolidin-1-yl)cyclohexyl)amino)-5,11,17-trioxo-3,9,15-trioxa-6,12-diazaheptadecyl)-1-methyl-5-oxo-2-(pyridin-3-yl)pyrrolidine-3-carboxamide] | 50% | 9.0855 | 52.9 µM | – | 67.6%
CC(C)N(C)[C@@H]1CC[C@H](N2CC[C@H](Nc3ncnc4ccc(C(F)(F)F)cc34)C2=O)[C@H](NC(=O)CCNC(=O)CCCOC[C@H]2CC[C@@H](COCCNC(=O)[C@H]3CC(=O)N(C)[C@@H]3c3cccnc3)CC2)C1 [Example 62, (2S,3S)-N-(2-(((1S,4R)-4-((4-((3-(((1R,2S,5R)-5-(Isopropyl(methyl)amino)-2-((S)-2-oxo-3-((6-(trifluoromethyl)quinazolin-4-yl)amino)pyrrrolidin-1-yl)cyclohexyl)amino)-3-oxopropyl)amino)-4-oxobutoxy)methyl)cyclohexyl)methoxy)ethyl)-1-methyl-5-oxo-2-(pyridin-3-yl)pyrrolidine-3-carboxamide] | 56% | 9.6305 | 29 µM | – | 67.9%
CN1C(=O)C[C@H](C(=O)NCCOCCOCCOCCOCCOCCOCCC(=O)N[C@@H]2C[C@H](NC(C)(C)C)CC[C@@H]2N2CC[C@H](Nc3ncnc4ccc(C(F)(F)F)cc34)C2=O)[C@H]1c1cccnc1 [Example 38, (2S,3S)-N-(21-(((1R,2S,5R)-5-(tert-Butylamino)-2-((S)-2-oxo-3-((6-(trifluoromethyl)quinazolin-4-yl)amino)pyrrolidin-1-yl)cyclohexyl)amino)-21-oxo-3,6,9,12,15,18-hexaoxahenicosyl)-1-methyl-5-oxo-2-(pyridin-3-yl)pyrrolidine-3-carboxamide] | 84.55% | 9.611 | ≥ 10 µM | -2.2% | –
CC(C)N(C)[C@@H]1CC[C@H](N2CC[C@H](Nc3ncnc4ccc(C(F)(F)F)cc34)C2=O)[C@H](NC(=O)[C@H]2CC[C@@H](NC(=O)CCOCCOCCNC(=O)CCNC(=O)[C@H]3CC(=O)N(C)[C@@H]3c3cccnc3)CC2)C1 [Example 16, (2S,3S)-N-(3-((2-(2-(3-(((1S,4s)-4-(((1R,2S,5R)-5-(Isopropyl(methyl)amino)-2-((S)-2-oxo-3-((6-(trifluoromethyl)quinazolin-4-yl)amino)pyrrolidin-1-yl)cyclohexyl)carbamoyl)cyclohexyl)amino)-3-oxopropoxy)ethoxy)ethyl)amino)-3-oxopropyl)-1-methyl-5-oxo-2-(pyridin-3-yl)pyrrolidine-3-carboxamide] | 74% | 9.287 | ≥ 100 µM | – | 47.8%
CC(C)N(C)[C@@H]1CC[C@H](N2CC[C@H](Nc3ncnc4ccc(C(F)(F)F)cc34)C2=O)[C@H](NC(=O)[C@H]2CC[C@@H](NC(=O)CCOCCOCCNC(=O)CNC(=O)[C@H]3CC(=O)N(C)[C@@H]3c3cccnc3)CC2)C1 [Example 63, (2S,3S)-N-(2-((2-(2-(3-(((1S,4s)-4-(((1R,2S,5R)-5-(Isopropyl(methyl)amino)-2-((S)-2-oxo-3-((6-(trifluoromethyl)quinazolin-4-yl)amino)pyrrolidin-1-yl)cyclohexyl)carbamoyl)cyclohexyl)amino)-3-oxopropoxy)ethoxy)ethyl)amino)-2-oxoethyl)-1-methyl-5-oxo-2-(pyridin-3-yl)pyrrolidine-3-carboxamide] | 82% | 8.674 | 38.5 µM | – | 76.6%
CC(C)N(C)[C@@H]1CC[C@H](N2CC[C@H](Nc3ncnc4ccc(C(F)(F)F)cc34)C2=O)[C@H](NC(=O)[C@H]2C[C@@H](NC(=O)CCOCCOCCNC(=O)CCNC(=O)[C@H]3CC(=O)N(C)[C@@H]3c3cccnc3)C2)C1 [Example 49, (2S,3S)-N-(3-((2-(2-(3-(((1S,3s)-3-(((1R,2S,5R)-5-(Isopropyl(methyl)amino)-2-((S)-2-oxo-3-((6-(trifluoromethyl)quinazolin-4-yl)amino)pyrrolidin-1-yl)cyclohexyl)carbamoyl)cyclobutyl)amino)-3-oxopropoxy)ethoxy)ethyl)amino)-3-oxopropyl)-1-methyl-5-oxo-2-(pyridin-3-yl)pyrrolidine-3-carboxamide] | 85.84% | 9.191 | 80.3 µM | – | 56.7%
